Data from PubChem BioAssay (NCI).
Several values for one entry are separate records, joined by “and”; a condition that tells them apart may be missing. Equal entries are not always repeated.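 Values below derive from 48-hour exposures of cells grown in 96-well plates, with endpoints linearly interpolated between the two concentrations bracketing the appropriate inhibition level. GI50 marks 50% less growth. TGI is the concentration that stops growth completely.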

Columns and labels:
Assay in all cases: growth of human tumour cells (NCI), 48 h
M19-MEL melanoma = tested on: M19-MEL melanoma
SNB-78 CNS = tested on: SNB-78 CNS
DMS 114 small cell lung = tested on: DMS 114 small cell lung
HS 578T breast = tested on: HS 578T breast
NCI/ADR-RES ovarian = tested on: NCI/ADR-RES ovarian
T-47D breast = tested on: T-47D breast
MCF7 breast = tested on: MCF7 breast
MDA-MB-231 breast = tested on: MDA-MB-231 breast
MDA-MB-435 = tested on: MDA-MB-435
PC-3 prostate = tested on: PC-3 prostate

Compound | TGI (M19-MEL melanoma) | TGI (SNB-78 CNS) | TGI (DMS 114 small cell lung) | other results
O=c1ccc(=O)c2c(=O)c3ccccc3c(=O)c1=2 | 36.8 µM | > 100 µM | 95.1 µM | 
O=C([CH-]C(=O)C(F)(F)F)c1ccccc1.O=C([CH-]C(=O)C(F)(F)F)c1ccccc1.O=C([CH-]C(=O)C(F)(F)F)c1ccccc1.O=C([CH-]C(=O)C(F)(F)F)c1ccccc1.[Eu+3].c1ccncc1 | 62.8 µM |  |  | GI50 (M19-MEL melanoma): 10 µM
CCN(CC)c1ccc2c(c1)Nc1cc(=C(C#N)C#N)c3ccccc3c1=N2 | > 100 µM | > 100 µM | > 100 µM | 
CCOC(=O)CC1NC(=O)CS1 (centres undefined) | > 100 µM | > 100 µM | 57.8 µM | 
O=C(OC[C@H]1O[C@@H](OC(=O)c2cc(O)c(O)c(O)c2)[C@H](OC(=O)c2cc(O)c(O)c(O)c2)[C@@H](OC(=O)c2cc(O)c(O)c(O)c2)[C@@H]1OC(=O)c1cc(O)c(O)c(O)c1)c1cc(O)c(O)c(O)c1 | 83.2 µM | 80.3 µM | 15.9 µM | 
Cc1cc2c(=O)c3ccccc3[nH]c2c(C(=O)O)c1C | > 100 µM | > 100 µM | > 100 µM | 
C=C(C=O)CCCC(C)[C@@H]1CCC23CC12CCC1[C@@]2(C)CCC(OC(C)=O)C(C)(C)C2CC(OC2OC(COC(C)=O)C(O)C(O)C2O)[C@]13C (some centres undefined) |  | 3.4 µM |  | 
C[N+]1(C)C/C(=C\c2ccncc2)C(=O)/C(=C/c2ccncc2)C1 | > 100 µM | > 100 µM | > 100 µM | 
O=[N+]([O-])c1ccc2c(c1)[O][Sn]([I])([I])[O]2 | > 100 µM | > 100 µM | > 100 µM | GI50 (M19-MEL melanoma): 85.3 µM; GI50 (SNB-78 CNS): > 100000 nM; GI50 (DMS 114 small cell lung): > 100 µM
O=C1C2Cc3ccccc3CN2C(=O)N1CCN1CCCC1 (centres undefined) | > 100 µM |  | > 100 µM | 
COC(=O)c1c(-c2ccccc2)sc(-c2cccc3ccccc23)c1C(=O)OC | > 100 µM | > 100 µM |  | 
CN=C1SC(=Nc2ccc(N(C)C)cc2)N1C | > 100 µM | > 100 µM | 60.3 µM | 
COC(=O)C1=C(CS(=O)c2ccccc2[N+](=O)[O-])ON(C)C1c1ccccc1 (centres undefined) | > 100 µM | > 100 µM | 65.5 µM | 
O=c1[nH]c(=O)n(C2OC3COC2C3O)cc1F (centres undefined) |  | > 100 µM |  | 
CN1C(=O)C(Cl)(C(Cl)(Cl)S(=O)(=O)O)C(=O)c2ccccc21 (centres undefined) | > 100 µM |  |  | 
Cc1ccc2c(c1)C(c1cccc3ccccc13)OC2=O (centres undefined) | > 100 µM |  | > 100 µM | 
OC12CC/C(=N/OCc3ccccc3)CC1c1ccccc12 (centres undefined) | > 100 µM | > 100 µM | > 100 µM | 
C=C1C(=O)OC2/C=C(\C=O)CC/C=C(\C)C(O)C[C@@H]12 (some centres undefined) | 19.2 µM | 18.8 µM | 26.6 µM | 
C1=CC=C2NCCOCCNC3=CC=CC=CC3=NCCOCCN=C2C=C1 | > 100 µM | > 100 µM | > 100 µM | 
CCOc1ccccc1NC(=O)CCc1nc(=S)[nH][nH]1 | > 100 µM | > 100 µM | > 100 µM | 
Cc1c2cc[n+](C)cc2c(C)c2c1[nH]c1ccc(O)c(OCC(F)(F)F)c12 | 11.8 µM | 4.96 µM | 8.04 µM | 

Compound | TGI (M19-MEL melanoma) | TGI (SNB-78 CNS) | TGI (DMS 114 small cell lung) | other results
COC(=O)c1nc(N)[nH]c(=O)c1CCCCCc1c(C(=O)OC)nc(N)[nH]c1=O | > 50 µM | > 50 µM | > 50 µM | 
O=C1CCC(O)=C1O | > 100 µM |  | > 100 µM | 
CC(=O)O[C@@H]1C2C(=O)OC(=O)C2C2CCC[C@]23O[C@H]13 (some centres undefined) | > 100 µM | > 100 µM | > 100 µM | 
N#CC(NNC(=O)c1ccccc1O)c1cccc(O)c1 (centres undefined) |  | > 100 µM | 11.1 µM | 
S=c1nc(-c2cccnc2)[nH][nH]1 |  | > 100 µM | > 100 µM | 
Cc1c(Cl)cccc1NC(=O)CC1C(=O)Nc2ccccc2S1(=O)=O (centres undefined) | 55.3 µM | 45.5 µM | 44.9 µM | 
COc1ccc(/C=C2\C(=O)N(C(=O)Cc3ccccc3)N=C2C)cc1OC | > 100 µM | > 100 µM | > 100 µM | 
CCOC(=O)c1cc(/C=C/C(C)=C/C(=O)OC)n(C)c1C | > 100 µM | > 100 µM |  | 
BrC1(Br)C2/C=C\CCCCC21 (centres undefined) | > 100 µM | > 100 µM |  | 
CCOC(=O)[C@H]1Nc2ccc(OC)cc2C2c3ccccc3CC21 (some centres undefined) | > 100 µM | > 100 µM | > 100 µM | 
CC[C@@]1(O)C(=O)OCc2c1cc1n(c2=O)Cc2cc3cc(N)ccc3nc2-1 | 0.289 µM and 0.222 µM |  |  | GI50 (HS 578T breast): 532 nM and 2410 nM; TGI (NCI/ADR-RES ovarian): 169 nM and 116 nM; GI50 (SNB-78 CNS): 46.3 nM and 212 nM; GI50 (T-47D breast): 47.6 nM; GI50 (MCF7 breast): 1.65 nM; TGI (MCF7 breast): 5.73 µM; GI50 (MDA-MB-231 breast): 199 nM and 345 nM; TGI (MDA-MB-231 breast): 3.11 µM; GI50 (MDA-MB-435): 120 nM and 18.8 nM; TGI (MDA-MB-435): 663 nM and 133 nM; GI50 (PC-3 prostate): 141 nM and 84.2 nM
CC(=O)OC1[C@H]2c3cc4c(cc3CN3CCC(=C[C@@H]1O)C23)OCO4 (some centres undefined) | > 100 µM | > 100 µM |  | 
COc1cc(Br)c(C=Nc2cccc3ccc(OS(=O)(=O)c4cccc([N+](=O)[O-])c4)cc23)cc1OC | > 100 µM | 72.9 µM | > 100 µM | 
Nc1nc(CCC(=O)Nc2cccc(C(F)(F)F)c2)cc(-c2ccc3ccccc3c2)n1 | > 100 µM | > 100 µM | > 100 µM | 
CCOC(=O)C(=O)Nc1c(C(C)C)cccc1C(C)C | > 100 µM | > 100 µM | > 100 µM | 
C=C=C(C(=O)OC)S(=O)c1ccc([N+](=O)[O-])cc1[N+](=O)[O-] (centres undefined) | 62 µM |  | 45.6 µM | 
O=C1NC2(CN3CCC2CC3)C(=O)N1CN(Cc1ccccc1)c1ccccc1 (centres undefined) |  |  |  | TGI (HS 578T breast): > 100 µM; TGI (NCI/ADR-RES ovarian): > 100000 nM; TGI (T-47D breast): > 100000 nM; TGI (MCF7 breast): > 100 µM; TGI (MDA-MB-231 breast): > 100 µM; TGI (MDA-MB-435): > 100000 nM; TGI (PC-3 prostate): > 100000 nM
CC1(C)C2CCC3(C2)CS(=O)(=O)N2OC231 (centres undefined) | 29.8 µM | 47.2 µM | 26.8 µM | 
C[C-](O)O.O/C(=C\[C-](O)c1ccccc1)c1ccccc1.O/C(=C\[C-](O)c1ccccc1)c1ccccc1.[Nd+3] (centres undefined) | 42.7 µM |  | 57 µM | GI50 (M19-MEL melanoma): 12.2 µM; GI50 (DMS 114 small cell lung): 17.9 µM
NC(=O)c1ccc(C2C3=C(CCCC3=O)OC3=C2C(=O)c2ccccc2C3=O)cc1 (centres undefined) |  |  |  | GI50 (HS 578T breast): 1130 nM; TGI (HS 578T breast): 5.49 µM; GI50 (NCI/ADR-RES ovarian): 2940 nM; TGI (NCI/ADR-RES ovarian): 22500 nM; GI50 (T-47D breast): 272 nM; TGI (T-47D breast): 968 nM; GI50 (MCF7 breast): 233 nM; TGI (MCF7 breast): 0.824 µM; GI50 (MDA-MB-231 breast): 323 nM; TGI (MDA-MB-231 breast): 1.54 µM; GI50 (MDA-MB-435): 179 nM; TGI (MDA-MB-435): 339 nM; GI50 (PC-3 prostate): 285 nM; TGI (PC-3 prostate): 1860 nM
